Test results as given in patent publication US11866502B2, “Anti-FGFR2 antibodies and methods of use thereof” (Regeneron Pharmaceuticals, Inc., priority 2020, dated 2024).
Read-outs that look alike come from different tables or passages of the source.

Experiments:
[1] = tested on: NCI-H716 cells; test: In vitro cytotoxicity assay (CellTiter-Glo 2.0), NCI-H716 cells; assay type: cell-based, human; settings: for Max % Kill: NCI-H716, up to 20 nM
Protocol: (§1) To test the ability of anti-FGFR2 antibody drug conjugates (ADCs) disclosed herein to kill human cell lines, an in vitro cytotoxicity assay was performed. In vitro cytotoxicity of the anti-FGFR2 ADCs, isotype control ADCs, and reference free payloads were evaluated using the CellTiter-Glo 2.0 Assay Kit (Promega, Cat #G9243), in which the quantity of ATP present is used to determine the number of viable cells in culture. The payloads Maytansinoid 1A, Maytansinoid 1A* (a cell permeable equivalent of Maytansinoid 1A), and Tubulysin 1A were tested as free payloads, and the unconjugated antibodies, including comparator antibodies, were used as controls.
(§2) Five-fold serial dilutions of anti-FGFR2 ADCs or isotype control ADCs were prepared in dilution media (Optimem+0.1% BSA) and added to cells at final concentrations ranging from 20 nM to 0.051 pM (concentrations were corrected for the DAR and are dosed based on the effective payload concentration). Five-fold serial dilutions of free payloads were prepared in 100% DMSO, transferred to fresh dilution media, and then added to the cells at a final constant DMSO concentration of 0.2% and final payload concentrations ranging from 20 nM to 0.051 pM. The last well in each dilution series served as an untreated control and included media alone or media plus 0.2% DMSO and was plotted as a continuation of the 5-fold serial dilution. Six days later, 100 uL of CellTiter Glo 2.0 was added to each well, plates were mixed for 2 minutes on an orbital shaker, and plates were incubated at room temperature for 10 minutes. Relative light units (RLUs) were measured on an Envision luminometer (Perkin Elmer) and cell viability was expressed as a percentage of the untreated (100% viable) cells. IC50 values were determined using a four-parameter logistic equation over a 10-point dose response curve (GraphPad Prism). The maximum % kill was also determined for each test article as follows: 100−minimum percent viability.

[2] = tested on: SNU-16 cells; test: In vitro bystander assay, SNU-16 monoculture; assay type: cell-based, human
Protocol: as §2, with “The last well in each dilution series served as an untreated control and included media alone or media plus 0.2% DMSO and was plotted as a continuation of the 5-fold serial dilution. Six days later, 100 uL of CellTiter Glo 2.0 was added to each well, plates were mixed for 2 minutes on an orbital shaker, and plates were incubated at room temperature for 10 minutes.” left out
(§3) The ability of the anti-FGFR2 ADCs to induce cytotoxicity in FGFR2 negative cells through release of the payload in FGFR2 positive cells, i.e., bystander activity, was also assessed. […] Cytotoxicity was assessed as described previously for tumor cell lines except that three-fold serial dilutions were performed for all test articles with concentrations ranging from 100 nM to 15.2 pM, and cells were incubated with test articles for 5 days.

[3] = tested on: NALM-6 cells; test: In vitro bystander assay, NALM-6 monoculture; assay type: cell-based
Protocol: as §2, with “The last well in each dilution series served as an untreated control and included media alone or media plus 0.2% DMSO and was plotted as a continuation of the 5-fold serial dilution. Six days later, 100 uL of CellTiter Glo 2.0 was added to each well, plates were mixed for 2 minutes on an orbital shaker, and plates were incubated at room temperature for 10 minutes.” left out
as §3

[4] = tested on: SNU-16, MFM-223, NCI-H716, or IM-9 cells; test: In vitro cytotoxicity assay, several cell lines; assay type: cell-based, human; settings: for IC50: Homo sapiens, read-out: IC50 values
Protocol: as §1
as §2, with “Five-fold” for “Five-fold serial dilutions of anti-FGFR2 ADCs or isotype control ADCs were prepared in dilution media (Optimem+0.1% BSA) and added to cells at final concentrations ranging from 20 nM to 0.051 pM (concentrations were corrected for the DAR and are dosed based on the effective payload concentration). Five-fold”
A comparator anti-FGFR2 ADC that recognizes both FGFR2b and FGFR2c and is conjugated to an auristatin payload (Comp2-BAY-LP) was also tested for cytotoxicity.

[5] = tested on: MFM-223 cells; test: In vitro cytotoxicity assay (CellTiter-Glo 2.0), MFM-223 cells; assay type: cell-based, human; settings: for Max % Kill: MFM-223, up to 20 nM
Protocol: as §1, §2

[6] = tested on: IM-9 cells; test: In vitro cytotoxicity assay (CellTiter-Glo 2.0), IM-9 cells; assay type: cell-based, human; settings: for Max % Kill: IM-9, up to 20 nM
Protocol: as §1, §2

[7] = tested on: SNU-16 cells; test: In vitro cytotoxicity assay (CellTiter-Glo 2.0), SNU-16 cells; assay type: cell-based, human; settings: for Max % Kill: SNU-16, up to 20 nM
Protocol: as §1, §2

[8] = tested on: SNU-16 + NALM-6 Cells; test: In vitro bystander assay, SNU-16 + NALM-6 coculture (1:1); assay type: cell-based
Protocol: as §2, with “The last well in each dilution series served as an untreated control and included media alone or media plus 0.2% DMSO and was plotted as a continuation of the 5-fold serial dilution. Six days later, 100 uL of CellTiter Glo 2.0 was added to each well, plates were mixed for 2 minutes on an orbital shaker, and plates were incubated at room temperature for 10 minutes.” left out
as §3

[9] = minimum tolerated dose below the therapeutic threshold estimated preclinically; trial terminated early; cited from earlier work
[10] = tested on: FGFR2 positive tumors; settings: cited from earlier work
[11] = target: T1, hFGFR2b.mmh (Homo sapiens, UniProt P21802); test: Biacore surface plasmon resonance binding kinetics to hFGFR2b.mmh; settings: 25° C.
T1 construct: myc-myc-hexahistidine (MMH) (C); made in house
Protocol: The Biacore sensor surface was derivatized by amine coupling with a monoclonal mouse anti-human Fc antibody (REGN2567 or Jackson Cat. […] Human FGFR2b and Human FGFR2c were prepared in-house expressing a C-terminal myc-myc-hexahistidine tag ([…] NO: 57; […] NO: 58). […] Association of hFGFR2b-MMH or hFGFR2c-MMH to each of the captured ADCs and monoclonal antibodies was monitored for 4 minutes. Subsequently, dissociation was monitored for 10 minutes in HBS-EP running buffer. Anti-human Fc surface was regenerated by a brief injection of 20 mM H3PO4. All binding kinetic experiments were performed at 25° C. […] All sensorgrams were double referenced by subtracting buffer injection sensorgram signal from the corresponding analyte sensorgram, thereby removing artifacts caused by dissociation of the antibody from the capture surface. […] [formula]

[12] = target: T2, hFGFR2c.mmh (Homo sapiens, UniProt P21802); test: Biacore surface plasmon resonance binding kinetics to hFGFR2c.mmh; settings: 25° C.
T2 construct: myc-myc-hexahistidine (MMH) (C); made in house
Protocol: The equilibrium dissociation constants (KD values) for hFGFR2b.mmh binding to anti-FGFR2 antibodies conjugated with Tubulysin (“tubulysin 1ALP”), Auristatin (“auristatin LP1”), or mc-VC-PAB-NMe-C3-May (“maytansinoid 1ALP”) were determined using a real-time surface plasmon resonance biosensor assay on a Biacore 2000 or a Biacore 4000 instrument. The Biacore sensor surface was derivatized by amine coupling with a monoclonal mouse anti-human Fc antibody (REGN2567 or Jackson Cat. No #109-005-098) to capture anti-FGFR2 ADC and parent unmodified antibodies expressed with human constant regions. Biacore binding studies were performed in HBS-EP running buffer (0.01M HEPES pH 7.4, 0.15M NaCl, 3 mM EDTA, 0.05% v/v Surfactant P20). […] Association of hFGFR2b-MMH or hFGFR2c-MMH to each of the captured ADCs and monoclonal antibodies was monitored for 4 minutes. Subsequently, dissociation was monitored for 10 minutes in HBS-EP running buffer. […] Kinetic association (ka) and dissociation (kd) rate constants were determined by fitting the real-time sensorgrams to a 1:1 binding model using Scrubber 2.0c curve fitting software. […] Binding dissociation equilibrium constants (KD) and dissociative half-lives (t½) were calculated from the kinetic rate constants as: […]

T1 sequence (P21802 with tags, fused parts or gaps isoform P21802-3): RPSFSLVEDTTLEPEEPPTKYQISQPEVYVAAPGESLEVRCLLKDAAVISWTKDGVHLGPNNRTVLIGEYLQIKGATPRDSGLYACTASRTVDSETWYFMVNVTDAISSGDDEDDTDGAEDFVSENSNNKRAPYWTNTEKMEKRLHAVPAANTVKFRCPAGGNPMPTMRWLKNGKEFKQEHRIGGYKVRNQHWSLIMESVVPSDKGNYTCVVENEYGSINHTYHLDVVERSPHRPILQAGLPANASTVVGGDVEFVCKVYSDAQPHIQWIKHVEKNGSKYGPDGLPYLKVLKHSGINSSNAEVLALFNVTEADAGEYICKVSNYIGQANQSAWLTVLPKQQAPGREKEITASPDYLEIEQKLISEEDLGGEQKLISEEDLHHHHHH
T2 sequence (P21802 with tags, fused parts or gaps): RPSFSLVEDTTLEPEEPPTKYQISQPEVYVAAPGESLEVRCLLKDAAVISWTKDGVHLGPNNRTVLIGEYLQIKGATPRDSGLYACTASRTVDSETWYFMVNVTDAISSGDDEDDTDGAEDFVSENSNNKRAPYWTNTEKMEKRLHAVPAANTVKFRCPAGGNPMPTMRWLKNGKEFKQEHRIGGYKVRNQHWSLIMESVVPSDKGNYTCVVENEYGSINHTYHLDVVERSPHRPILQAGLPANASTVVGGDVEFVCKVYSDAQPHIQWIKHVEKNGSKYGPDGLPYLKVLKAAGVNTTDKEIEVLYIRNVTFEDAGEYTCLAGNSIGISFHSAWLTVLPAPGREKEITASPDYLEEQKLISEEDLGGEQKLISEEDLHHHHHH

## C#CCCCON(C(=O)[C@@H](NC(=O)[C@H]1CCCCN1C)[C@@H](C)CC)[C@H](C[C@@H](OC(C)=O)c1nc(C(=O)N[C@@H](Cc2ccc(N)cc2)CC(C)(C)C(=O)O)cs1)C(C)C [Tubulysin 1A]
[1]; Homo sapiens, NCI-H716, 144 h
  IC50: 0.0743 nM
[1]; 6 days
  Max % Kill: 84.9%
[2]; Homo sapiens, SNU-16, 120 h
  IC50: 0.0184 nM
[2]; SNU-16 monoculture, 5 days
  Max % Kill: 99.3%
[3]; Homo sapiens, NALM-6, 120 h
  IC50: 0.0709 nM
[3]; NALM-6 monoculture, 5 days
  Max % Kill: 99.9%
[4]
  IC50: 0.00369 to 0.0743 nM
[5]; Homo sapiens, MFM-223, 144 h
  IC50: 0.00376 nM
[5]; 6 days
  Max % Kill: 89.7%
[6]; Homo sapiens, IM-9, 144 h
  IC50: 0.0212 nM
[6]; 6 days
  Max % Kill: 94.6%
[7]; Homo sapiens, SNU-16, 144 h
  IC50: 0.00369 nM
[7]; 6 days
  Max % Kill: 95.1%
[8]; 120 h
  IC50: 0.166 nM
[8]; SNU-16 + NALM-6 1:1 coculture, 5 days
  Max % Kill: 99.5%

## CNCCC(=O)N(C)[C@@H](C)C(=O)O[C@H]1CC(=O)N(C)c2cc(cc(OC)c2Cl)C/C(C)=C/C=C/[C@@H](OC)[C@@]2(O)C[C@H](OC(=O)N2)[C@@H](C)[C@@H]2O[C@@]12C [maytansinoid 1A]
[1]; Homo sapiens, 144 h, NCI-H716 (low FGFR2b, high FGFR2c), 6 days, read-out: IC50
  IC50: > 20 nM
[1]; 6 days
  Max % Kill: 6.4%
[4]; all tested cells, lower end of range, upper end >20 nM
  IC50: ≥ 4.63 nM
[5]; Homo sapiens, MFM-223, 144 h, read-out: IC50
  IC50: > 20 nM
[5]; 6 days
  Max % Kill: 18.1%
[6]; Homo sapiens, 144 h, IM-9 (non-FGFR2 expressing), 6 days, read-out: IC50
  IC50: > 20 nM
[6]; 6 days
  Max % Kill: 3.7%
[7]; Homo sapiens, 144 h, SNU-16 (FGFR2b positive), 6 days, read-out: IC50
  IC50: > 20 nM
[7]; 6 days
  Max % Kill: 9.2%

B1: Aprutumab ixodotin: FGFR2 antibody conjugated to auristatin (conjugate, chains of the INN, looked up)
VH: EVQLLESGGGLVQPGGSLRLSCAASGFTFSSYAMSWVRQAPGKGLEWVSAISGSGTSTYYADSVKGRFTISRDNSKNTLYLQMNSLRAEDTAVYYCARVRYNWNHGDWFDPWGQGTLVTVSS
VL: QSVLTQPPSASGTPGQRVTISCSGSSSNIGNNYVSWYQQLPGTAPKLLIYENYNRPAGVPDRFSGSKSGTSASLAISGLRSEDEADYYCSSWDDSLNYWVFGGGTKLTVL
modifications: auristatin payload conjugate
notes: FGFR2 antibody conjugated to auristatin
[9]
  tolerability in clinical testing: poorly tolerated

B2: Bemarituzumab: anti-FGFR2 therapy (antibody, chains of the INN, looked up, V domains shown)
VH: QVQLVQSGAEVKKPGSSVKVSCKASGYIFTTYNVHWVRQAPGQGLEWIGSIYPDNGDTSYNQNFKGRATITADKSTSTAYMELSSLRSEDTAVYYCARGDFAYWGQGTLVTVSS
VL: DIQMTQSPSSLSASVGDRVTITCKASQGVSNDVAWYQQKPGKAPKLLIYSASYRYTGVPSRFSGSGSGTDFTFTISSLQPEDIATYYCQQHSTTPYTFGQGTKLEIK
[10]
  treatment outcome: improvements in early survival and advanced disease

B3: Comp1: Comparator (Five Prime Therapeutics): humanized anti-FGFR2b isoform antibody of Catenacci et al. (Bemarituzumab, FPA144) (antibody, chains of the INN, looked up, V domains shown)
VH: QVQLVQSGAEVKKPGSSVKVSCKASGYIFTTYNVHWVRQAPGQGLEWIGSIYPDNGDTSYNQNFKGRATITADKSTSTAYMELSSLRSEDTAVYYCARGDFAYWGQGTLVTVSS
VL: DIQMTQSPSSLSASVGDRVTITCKASQGVSNDVAWYQQKPGKAPKLLIYSASYRYTGVPSRFSGSGSGTDFTFTISSLQPEDIATYYCQQHSTTPYTFGQGTKLEIK
[1]; NCI-H716 (low FGFR2b, high FGFR2c), 6 days, read-out: IC50
  IC50: > 20 nM
[1]; 6 days
  Max % Kill: 9.9%
[11]
  Kd: 60.8 nM
  ka: 77400 M⁻¹ s⁻¹
  kd: 0.00471 s⁻¹
[11]; antibody or ADC captured on anti-human Fc surface
  Antigen Bound (RU): 68.3 RU
[11]; dissociative half-life
  t1/2: 2.5 min
[4]; all tested lines, unconjugated antibodies
  EC50: > 20 nM
[12]
  Kd: > 30 nM
[12]; antibody captured on anti-human Fc surface
  Antigen Bound (RU): 0.6 RU
[5]; MFM-223 (FGFR2b positive), 6 days, read-out: IC50
  IC50: > 20 nM
[5]; 6 days
  Max % Kill: 0.8%
[6]; IM-9 (non-FGFR2 expressing), 6 days, read-out: IC50
  IC50: > 20 nM
[6]; 6 days
  Max % Kill: 3.8%
[7]; SNU-16 (FGFR2b positive), 6 days, read-out: IC50
  IC50: > 20 nM
[7]; 6 days
  Max % Kill: 0.0%
